What was measured:
[1] = LNP size and polydispersity index (PDI) by dynamic light scattering; format: physicochemical; settings: for Size: in nm (unit assumed)
How it was run: (§1)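 Ribogreen fluorescence with and without Triton X-100 gave encapsulation as 100% − (intact/lysed) signal; DLS size, PDI and zeta potential measured on a Zetasizer. Particles: 50:10:38.5:1.5 lipid mix, luciferase circRNA or mRNA, lipid:nucleotide 15 or 6, microfluidic assembly at pH 4.5, PBS-dialyzed.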

[2] = LNP zeta potential (Zetasizer); format: physicochemical
How it was run: as §1

[3] = RNA encapsulation efficacy by Quant-IT Ribogreen kit; format: physicochemical; settings: for Encapsulation Efficiency %: LNP with cirRNA (SEQ ID NO: 1); for Encapsulation Efficiency: LNP with mRNA (SEQ ID NO: 2)
How it was run: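 Dynamic light scattering and zeta potential measurements were run on PBS-dialyzed LNPs, which had been formed by microfluidic mixing at 12 ml/min with final lipid at 1.5 mM to 6 mM. RNA content and percent encapsulation were determined by Ribogreen with and without Triton X-100.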

Hep G2 cells [4] = experiment: In vitro expression of firefly-luciferase, Hep G2; format: cell-based
How it was run: (§2)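 First, cells were dosed with RNA lipid nanoparticles encoding firefly luciferase (100 ng/mL). Second, at 72 h they were washed and lysed. Third, lysate luciferase activity was read with a luminometer.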

RAW 264.7 cells [5] = experiment: In vitro expression of firefly-luciferase, RAW 264.7; format: cell-based
How it was run: as §2

Hep G2 cells [6] = experiment: In vitro toxicity (CellTiter-Glo cell viability), Hep G2; format: cell-based;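 note: percent of untreated cells luminescence signal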
How it was run: (§3)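 RNA-LNPs 1 μg/mL; 72 h post-transfection; CellTiter-Glo luminescence read-out; % viability calculated from signal.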

RAW 264.7 cells [7] = experiment: In vitro toxicity (CellTiter-Glo cell viability), RAW 264.7; format: cell-based;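 note: percent of untreated cells luminescence signal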
How it was run: as §3

BALB/C mice [8] = experiment: In vivo expression, whole-body luminescence (IVIS)
Protocol: 6-8 week old, female BALB/C mice were injected with 0.05 mg*kg-1 of RNA-LNPs encoding for firefly-luciferase by intravenous injection. At 6 hours post injection, animals were intraperitoneally injected with 15 mg/ml of Luciferin substrate and whole-body luminescence was determined by a bioluminescent in vivo imaging system (IVIS).

MCP-I = MCP-I cytokine elevation in serum; format: in vivo; settings: cirRNA (SEQ ID NO: 1) LNPs, mice
Protocol: 6-8 week old, female BALB/C mice were injected with 0.5 mg*kg-1 of RNA LNPs by intravenous injection. At 2 and 24 hours post injection, animals were bled and sera concentrations of MCP-I were determined by an immunoassay (Luminex).

[9] = system: Alanine Aminotransferase (ALT); experiment: Liver enzyme elevation in serum, ALT; format: in vivo; settings: cirRNA (SEQ ID NO: 1) LNPs, BALB/C mice, intravenous 0.5 MPK
Protocol: (§4) 6-8 week old, female BALB/C mice were injected with 0.5 mg*kg-1 of RNA LNPs by intravenous injection. At 2 and 24 hours post injection, animals were bled and sera concentrations of Alanine Aminotransferase (ALT) and Aspartate Aminotransferase (AST) were determined by a blood chemistry analyzer.

[10] = system: Aspartate Aminotransferase (AST); experiment: Liver enzyme elevation in serum, AST; format: in vivo; settings: cirRNA (SEQ ID NO: 1) LNPs, BALB/C mice, intravenous 0.5 MPK
Protocol: as §4

BALB/C mice [11] = experiment: Local tolerance determination by footpad injection; format: in vivo; settings: cirRNA (SEQ ID NO: 1) LNP, 0.175 mg*kg-1 subcutaneous into the footpad, 24 hours post minus prior
Protocol: 6-8 week old, female BALB/C mice were injected with 0.175 mg*kg-1 RNA LNPs by subcutaneous injection into the footpad. Prior to, and 24 hours post injections, injected footpad thickness was determined by a caliper.

[12] = Long term stability analysis / stability under LNP synthesis conditions (Ethanol and PBS pH=7.4); format: physicochemical; settings: after incorporation into lipid nanoparticles / LNP synthesis conditions
Protocol: The purity of the lipids was tested, after they were incorporated into lipid nanoparticles, only to find that the Reference Lipids were cleaved under LNP synthesis conditions, either via transesterification or hydrolysis.

[13] = cirRNA (SEQ ID NO: 1) LNPs, firefly-luciferase luminescence, Hep G2 cells
[14] = mRNA (SEQ ID NO: 2) LNP, 100 ng/mL, 72 hours post transfection, luciferase activity
[15] = cirRNA (SEQ ID NO: 1) LNPs, firefly-luciferase luminescence, RAW 264.7 cells
[16] = cirRNA (SEQ ID NO: 1) LNPs, Hep G2 cells
[17] = mRNA (SEQ ID NO: 2) LNP, 1 μg/mL, 72 hours post transfection
[18] = cirRNA (SEQ ID NO: 1) LNPs, RAW 264.7 cells
[19] = cirRNA (SEQ ID NO: 1) LNPs, BALB/C mice
[20] = mRNA (SEQ ID NO: 2) LNP, 0.05 mg*kg-1 intravenous, 6 hours post injection

Row | PDI ([1]; LNP with cirRNA (SEQ ID NO: 1)) | Size ([1]; LNP with cirRNA (SEQ ID NO: 1)) | PDI ([1]; LNP with mRNA (SEQ ID NO: 2)) | Size ([1]; LNP with mRNA (SEQ ID NO: 2)) | Zeta (mV) ([2]; LNP with cirRNA (SEQ ID NO: 1)) | Zeta (mV) ([2]; LNP with mRNA (SEQ ID NO: 2)) | Encapsulation Efficiency % [3] | Encapsulation Efficiency [3] | MCP-I in Sera 2 hours After 0.5 MPK Injection (MCP-I) | MCP-I in Sera 24 hours After 0.5 MPK Injection (MCP-I) | Structure (SMILES) | In vitro Expression HepG2 (Hep G2 cells [4]; [13]) | In vitro Expression HepG2 (Hep G2 cells [4]; [14]) | In vitro Expression RAW (RAW 264.7 cells [5]; [15]) | In vitro Expression RAW (RAW 264.7 cells [5]; [14]) | In vitro Viability HepG2 (Hep G2 cells [6]; [16]) | In vitro Viability HepG2 (Hep G2 cells [6]; [17]) | In vitro Viability RAW (RAW 264.7 cells [7]; [18]) | In vitro Viability RAW (RAW 264.7 cells [7]; [17]) | In vivo Expression (Whole Body) (BALB/C mice [8]; [19]) | In vivo Expression (Whole Body) (BALB/C mice [8]; [20]) | further results
1 | 0.1398 | 102 | 0.07745 | 87.9 | 9.074 mV | 5.722 mV | 97% | 90.28% | 6397.67 pg/mL | 561.62 pg/mL | CCCCCCCCC(CCCCCC)C(=O)OCCCCCCCCN(CCCCCCCCOC(=O)C(CCCCCC)CCCCCCCC)CCCOC(=O)NCCCN(CC)CC (stereo not drawn) [Lipid 376] | 4.84E+06 | 5.32E+05 | 1.00E+06 | 8.33E+04 | 48% | 53% | 87% | 100% | 1.16E+08 | 1.56E+09 | ALT in Sera (IU/L) 2 hours After 0.5 MPK Injection [9]: 117.33 IU/L; ALT in Sera (IU/L) 24 hours After 0.5 MPK Injection [9]: 141.33 IU/L; AST in Sera (IU/L) 2 hours After 0.5 MPK Injection [10]: 434.67 IU/L; AST in Sera (IU/L) 24 hours After 0.5 MPK Injection [10]: 293.67 IU/L; Footpad Thickness (24 h−0 h, mm) (BALB/C mice [11]): 0.89 mm
2 | 0.1668 | 112.8 | 0.02507 | 88.83 | −2.171 mV | −2.552 mV | 92% | 80.50% | 1168.73 pg/mL | 1025.26 pg/mL | CCCCCCCCC(CCCCCC)C(=O)OCCCCCCCCN(CCCCCCCCOC(=O)C(CCCCCC)CCCCCCCC)CCCOC(=O)NCCN1CCCCC1 (stereo not drawn) [Lipid 380] | 2.95E+07 | 7.30E+07 | 2.22E+06 | 1.45E+06 | 89% | 94% | 86% | 106% | 4.50E+08 | 4.00E+08 | ALT in Sera (IU/L) 2 hours After 0.5 MPK Injection [9]: 89.33 IU/L; ALT in Sera (IU/L) 24 hours After 0.5 MPK Injection [9]: 122.00 IU/L; AST in Sera (IU/L) 2 hours After 0.5 MPK Injection [10]: 196.33 IU/L; AST in Sera (IU/L) 24 hours After 0.5 MPK Injection [10]: 480.67 IU/L; Footpad Thickness (24 h−0 h, mm) (BALB/C mice [11]): 0.25 mm
3 | 0.1744 | 90.41 | 0.1802 | 94.23 | −0.4606 mV | −13.05 mV | 95% | 86.72% | 5759.00 pg/mL | 2458.33 pg/mL | CCCCCCCCC(CCCCCC)C(=O)OCCCCCCCCN(CCCCCCCCOC(=O)C(CCCCCC)CCCCCCCC)CCCOC(=O)NCCN1CCCCCC1 (stereo not drawn) [Lipid 383] | 6.03E+06 | 3.97E+01 | 2.93E+06 | 2.14E+06 | 97% | 94% | 89% | 94% | 4.66E+08 | 2.01E+08 | ALT in Sera (IU/L) 2 hours After 0.5 MPK Injection [9]: 99.33 IU/L; ALT in Sera (IU/L) 24 hours After 0.5 MPK Injection [9]: 116.00 IU/L; AST in Sera (IU/L) 2 hours After 0.5 MPK Injection [10]: 245.00 IU/L; AST in Sera (IU/L) 24 hours After 0.5 MPK Injection [10]: 354.67 IU/L; Footpad Thickness (24 h−0 h, mm) (BALB/C mice [11]): 0.60 mm
4 | 0.1152 | 118.3 | 0.08023 | 139.5 | −1.304 mV | 8.776 mV | 74% | 84.38% |  |  | CCCCC/C=C\CCOC(=O)CCCCCCCN(CCCCCCCC(=O)OCC/C=C\CCCCC)CCOC(=O)CCCN(C)C [Lipid C, reference compound] | 8.20E+02 | 1.03E+04 |  | 4.63E+05 |  | 103% |  | 88% |  | 4.72E+05 | Stability of the lipid (cleavage, hydrolysis) [12]: extensive hydrolysis of the ester moiety
